Earlier results as cited in PubChem BioAssay AID1259409 (Chemical Carcinogenesis Research Information System (CCRIS), 2018).

System: rodent chemically induced tumor inhibition, incidence and multiplicity
Experiment: CCRIS tumor inhibitor studies
Settings: Dose [Inhibitor]: 0, Route [Inhibitor]: ORAL, Species: RAT, Promoter: NONE USED

For `CCCCCCCCCCCCC(=O)COC1=C(O)C(=O)O[C@@H]1[C@@H](O)CO`, the “tumour outcome (control, treated, inhibition, significance)” value (Carcinogen: 2-AMINO-1-METHYL-6-PHENYLIMIDAZO[4,5-B]PYRIDINE, 105650-23-5, 1% IN DIET FOR 52 WK CONCURRENTLY WITH CARCINOGEN TREATMENT (STUDY DURATION: 52 WK), Strain/Sex: F344/FEMALE, Target Tissue: Type of Lesion: LARGE INTESTINE: ADENOMA OR CARCINOMA, Dose [Carcinogen]: 0.02% IN DIET FOR 52 WK) is given as 2/18 (11%), 1/20 (5%), 55%, not significant, the “tumour outcome (control, treated, inhibition, significance)” value (Carcinogen: 2-AMINO-1-METHYL-6-PHENYLIMIDAZO[4,5-B]PYRIDINE, 105650-23-5, 1% IN DIET FOR 52 WK CONCURRENTLY WITH CARCINOGEN TREATMENT (STUDY DURATION: 52 WK), Strain/Sex: F344/FEMALE, Target Tissue: Type of Lesion: MAMMARY GLAND: ADENOCARCINOMA, Dose [Carcinogen]: 0.02% IN DIET FOR 52 WK) is given as 8/20 (40%), 5/21 (24%), 40%, not significant and the “tumour outcome (control, treated, inhibition, significance)” value (Carcinogen: DIETHYLNITROSAMINE, 55-18-5, N-METHYL-N-NITROSOUREA, 684-93-5, N-BUTYL-N-(4-HYDROXYBUTYL)NITROSAMINE, 3817-11-6, DIMETHY, Carcinogen: DIETHYLNITROSAMINE, 55-18-5, N-METHYL-N-NITROSOUREA, 684-93-5, N-BUTYL-N-(4-HYDROXYBUTYL)NITROSAMINE, 3817-11-6, DIMETHY, 1% IN THE DIET FOR 24 WK BEGINNING 1 D POST CARCINOGEN TREATMENT (STUDY DURATION: 28 WK), Strain/Sex: F344/MALE, Target Tissue: Type of Lesion: LARGE INTESTINE: CARCINOMA, Dose [Carcinogen]: 100 MG/KG BW DEN ONCE FOLLOWED BY 20 MG/KG BW MNU 4 TIMES AND 0.05% BBN IN DRINKING WATER DURING FIRST 2 WK THEN 40 MG/K) is given as 7%, 0%, 100%, not significant. For the same compound, the “tumour outcome (control, treated, inhibition, significance)” value (Carcinogen: DIETHYLNITROSAMINE, 55-18-5, N-METHYL-N-NITROSOUREA, 684-93-5, N-BUTYL-N-(4-HYDROXYBUTYL)NITROSAMINE, 3817-11-6, DIMETHY, Carcinogen: DIETHYLNITROSAMINE, 55-18-5, N-METHYL-N-NITROSOUREA, 684-93-5, N-BUTYL-N-(4-HYDROXYBUTYL)NITROSAMINE, 3817-11-6, DIMETHY, 1% IN THE DIET FOR 24 WK BEGINNING 1 DAY POST CARCINOGEN TREATMENT (STUDY DURATION: 28 WK ), Strain/Sex: F344/MALE, Target Tissue: Type of Lesion: URINARY BLADDER: CARCINOMA, Dose [Carcinogen]: 100 MG/KG BW DEN ONCE FOLLOWED BY 20 MG/KG BW MNU 4 TIMES AND 0.05% BBN IN DRINKING WATER DURING FIRST 2 WK THEN 40 MG/K) was 7%, 0%, 100%, not significant, the “tumour outcome (control, treated, inhibition, significance)” value (Carcinogen: DIETHYLNITROSAMINE, 55-18-5, N-METHYL-N-NITROSOUREA, 684-93-5, N-BUTYL-N-(4-HYDROXYBUTYL)NITROSAMINE, 3817-11-6, DIMETHY, Carcinogen: DIETHYLNITROSAMINE, 55-18-5, N-METHYL-N-NITROSOUREA, 684-93-5, N-BUTYL-N-(4-HYDROXYBUTYL)NITROSAMINE, 3817-11-6, DIMETHY, 1% IN THE DIET FOR 24 WK BEGINNING 1 DAY POST CARCINOGEN TREATMENT (STUDY DURATION: 28 WK), Strain/Sex: F344/MALE, Target Tissue: Type of Lesion: LARGE INTESTINE: ADENOMA, Dose [Carcinogen]: 100 MG/KG BW DEN ONCE FOLLOWED BY 20 MG/KG BW MNU 4 TIMES AND 0.05% BBN IN DRINKING WATER DURING FIRST 2 WK THEN 40 MG/K) was 27%, 13%, 52%, not significant and the “tumour outcome (control, treated, inhibition, significance)” value (Carcinogen: DIETHYLNITROSAMINE, 55-18-5, N-METHYL-N-NITROSOUREA, 684-93-5, N-BUTYL-N-(4-HYDROXYBUTYL)NITROSAMINE, 3817-11-6, DIMETHY, Carcinogen: DIETHYLNITROSAMINE, 55-18-5, N-METHYL-N-NITROSOUREA, 684-93-5, N-BUTYL-N-(4-HYDROXYBUTYL)NITROSAMINE, 3817-11-6, DIMETHY, 1% IN THE DIET FOR 24 WK BEGINNING 1 DAY POST CARCINOGEN TREATMENT (STUDY DURATION: 28 WK), Strain/Sex: F344/MALE, Target Tissue: Type of Lesion: SMALL INTESTINE: ADENOMA, Dose [Carcinogen]: 100 MG/KG BW DEN ONCE FOLLOWED BY 20 MG/KG BW MNU 4 TIMES AND 0.05% BBN IN DRINKING WATER DURING FIRST 2 WK THEN 40 MG/K) was 33%, 20%, 39%, not significant. The “tumour outcome (control, treated, inhibition, significance)” value (Carcinogen: DIETHYLNITROSAMINE, 55-18-5, N-METHYL-N-NITROSOUREA, 684-93-5, N-BUTYL-N-(4-HYDROXYBUTYL)NITROSAMINE, 3817-11-6, DIMETHY, Carcinogen: DIETHYLNITROSAMINE, 55-18-5, N-METHYL-N-NITROSOUREA, 684-93-5, N-BUTYL-N-(4-HYDROXYBUTYL)NITROSAMINE, 3817-11-6, DIMETHY, 1% IN THE DIET FOR 24 WK BEGINNING 1 DAY POST CARCINOGEN TREATMENT (STUDY DURATION: 28 WK), Strain/Sex: F344/MALE, Target Tissue: Type of Lesion: SMALL INTESTINE: CARCINOMA, Dose [Carcinogen]: 100 MG/KG BW DEN ONCE FOLLOWED BY 20 MG/KG BW MNU 4 TIMES AND 0.05% BBN IN DRINKING WATER DURING FIRST 2 WK THEN 40 MG/K) was 7%, 20%, -185%, not significant and the “tumour outcome (control, treated, inhibition, significance)” value (Carcinogen: DIETHYLNITROSAMINE, 55-18-5, N-METHYL-N-NITROSOUREA, 684-93-5, N-BUTYL-N-(4-HYDROXYBUTYL)NITROSAMINE, 3817-11-6, DIMETHY, Carcinogen: DIETHYLNITROSAMINE, 55-18-5, N-METHYL-N-NITROSOUREA, 684-93-5, N-BUTYL-N-(4-HYDROXYBUTYL)NITROSAMINE, 3817-11-6, DIMETHY, 1% IN THE DIET FOR 24 WK BEGINNING 1 DAY POST CARCINOGEN TREATMENT (STUDY DURATION: 28 WK), Strain/Sex: F344/MALE, Target Tissue: Type of Lesion: THYROID: CARCINOMA, Dose [Carcinogen]: 100 MG/KG BW DEN ONCE FOLLOWED BY 20 MG/KG BW MNU 4 TIMES AND 0.05% BBN IN DRINKING WATER DURING FIRST 2 WK THEN 40 MG/K) was 7%, 0%, 100%, not significant.
